Laboratory results: US20200179308A1, “USE OF ISOHUMULONES AND DERIVATIVES THEREOF TO TREAT POLYCYSTIC OVARY SYNDROME” (KINDEX PHARMACEUTICALS, INC., priority 2017, published 2020)
Where “and” joins values, the source holds several entries; their conditions need not be identical. Identical values can stand only once. Entries after “also recorded” stand apart in the source; their conditions may differ.

Key:
Assay type in all cases: in vivo
[1] = Weight gain on high fat diet in DIO female mice; details: female mice on 60% HFD; oral once a day; KDT501 100 mg/kg, PIO 30 mg/kg; compared to VEH
Excerpt: To generate DIO mice, 7 week old female mice on a mixed strain background (129SvJ, C57B16, CD1) were placed and maintained on a high fat diet (HFD) for 8 weeks prior to study and throughout the course of study. The high fat diet consisted of 60% Kcal from fat with an energy density of 5.24 kcal/gm (D12492, Research Diets, Inc., New Brunswick, N.J., USA).
Wood chip bedding was maintained in these cages so that mice would not supplement their diet by eating the standard corncob bedding. Mice were weighed every week. The regular chow diet (Tekland Global 18% protein diet) was 24% Kcal from protein, 58% Kcal from carbohydrate, and 18% Kcal from fat with an energy density of 3.1 kcal/g (Harlan Laboratories, Indianapolis, Ind., USA). All procedures were performed with approval by the Johns Hopkins Animal Care and Use Committee under standard light and dark cycles.
At 80 days after introduction to high fat diet, the test compounds were administered orally to the mice once a day. […]
Female mice fed a high fat diet (60% calories from fat) gained approximately 4 grams of weight during the 8 week study period (FIG. 1). […] All data were analyzed with using Prism Software 5 GraphPad Software (La Jolla, CA) and are expressed as means ±SEM. Significance was determined via unpaired two- tailed Student t-test, one- or two-way ANOVA with the appropriate post-hoc tests. […]

DIO female mice [2] = assay: Serum pituitary gonadotropin (LH, FSH) levels, Luminex Milliplex mouse pituitary panel; details: KDT501 100 mg/kg, PIO 30 mg/kg oral once a day, compared to VEH
Experimental: (§1) To measure serum levels of LH, FSH, insulin, and leptin, serum samples were collected from mice via mandibular bleed. Mice were fasted overnight, and insulin or saline was injected IP according to the body weight of the mice (0.3 units/kg). Samples were obtained between 9:00 and 10:00 am on diestrus for baseline LH and FSH so as to avoid cycle dependent LH surges that occur in the late afternoon on the evening of proestrus. Rodent morning LH levels are not thought to vary in a cycle dependent manner (Helena et al. 2006). For fasting measurements of insulin, samples were also obtained between 9:00 and 10:00 am. Tissues were collected 10 minutes after insulin injection and snap-frozen in liquid nitrogen. Protein was obtained and measured as described previously (Brothers et al. 2010). To quantify the levels of phosphorylated AKT (pAKT), and AKT for different tissues of each individual animal after insulin or saline injection, Bio-Plex Phosphoprotein Detection Multiplex assays were used (Bio-Rad Laboratories, Hercules, Calif.). Protein ([…]) from each tissue was loaded into a 96-well microplate. Assays were conducted using the Luminex 200 system. Values were assessed as mean fluorescent intensity of phospho-specific signal. Serum was analyzed on a Luminex 20015 platform using the Milliplex Map mouse pituitary panel (LH/FSH) and a Milliplex mouse metabolic panel (insulin/leptin; Millipore, Billerica, Mass., USA). The assay detection limit for LH was 0.0019 ng/mL; for FSH, 0.0095 ng/mL; for insulin, 13.0 pg/mL; and for leptin, 4.2 pg/mL. Serum Testosterone was measured by radioimmunoassay at the University of Virginia Ligand Assay Core.

DIO female mice [3] = assay: Estrous cyclicity by vaginal cytology over 15 consecutive days; details: for percent of mice acyclic (did not complete even 1 complete estrous cycle): 15 day period beginning 10 days after treatment
Experimental: Diet-induced obesity has been reported to impair estrous cyclicity in female mice (Brothers et al., Wu et al.). In these studies, DIO females were treated with KDT501, PIO or VEH beginning 8 weeks after change to high fat diet. Mice were assessed for estrous cycle stage for 15 consecutive days beginning 10 days after drug/VEH treatment. Vaginal cytology was assessed daily between 9 and 10 am for 15 consecutive days beginning the 10th days after drug treatment. Vaginal cells were collected via saline lavage and then fixed with 100% ethanol and stained with the DIFF Quick Stain Kit (IMEB Inc., San Marcos, Calif., USA). Stages were assessed based on vaginal cytology (Nelson et al. 1982): predominant cornified epithelium indicated the estrus stage, predominant nucleated cells indicated the proestrus stage, both cornified and leukocytes indicated the metestrus stage, and predominant leukocytes indicated the diestrus stage. The percentage of mice at each different cycle stage in each group was calculated.

DIO female mice [4] = assay: IP-glucose tolerance test (IP-GTT); details: one month after drug treatment, relative to VEH
Experimental: (§2) To begin to assess the effects of drug treatment on glucose metabolism in female DIO mice, IP-glucose tolerance test (IP-GTT) was performed. One month after drug treatment, mice were tested for glucose tolerance by IP-GTT. The mice were fasted overnight for 16 hours, blood was drawn through the tail vein and baseline blood glucose was measured using a OneTouch Ultra glucometer. 20% dextrose was injected IP (2 g/kg body weight). Sample blood glucose was measured at 15, 30, 60, 90 and 120 minutes. One week after IP-GTT, the mice were tested for whole body insulin sensitivity by insulin tolerance test (ITT). Mice were fasted for seven hours, blood was drawn through the tail vein and baseline blood glucose was measured as above. 0.3 units/kg insulin was injected IP. Blood glucose of each mouse were measured at 15, 30, 60, 90 and 120 minutes. Area under the curve (AUC) was calculated for both the IP-GTT and the ITT.

DIO female mice [5] = assay: Insulin tolerance test (ITT), whole body insulin sensitivity
Experimental: as §2

DIO female mice [6] = assay: Liver lipid accumulation, H&E staining quantified with ImageJ
Experimental: Liver tissues were collected and placed immediately in 10% formalin. 5 μm sections of tissue were stained with H&E by the Johns Hopkins Molecular and Comparative Pathobiology Phenotyping Core. Quantification of the area of fat in liver tissue was measured with NIH imageJ software and compared across groups.

DIO female mice [7] = assay: Fasting serum insulin, leptin and IL-6 by Luminex assay; details: between VEH, KDT501 and PIO groups
Experimental: as §1

[8] = 15 day period, KDT501 100 mg/kg, PIO 30 mg/kg

Structure (SMILES) | weight gain (Δ weight from week 0) over the 8 week study period [1] | morning serum FSH level (DIO female mice [2]) | morning serum LH level (DIO female mice [2]) | ratio of LH/FSH (DIO female mice [2]) | percent of mice acyclic (did not complete even 1 complete estrous cycle) (DIO female mice [3]; KDT501 100 mg/kg, PIO 30 mg/kg) [%] | percentage of mice that completed 3 complete estrous cycles (DIO female mice [3]; [8]) | percentage of mice that had (at least) two complete estrous cycles (DIO female mice [3]; [8]) | percentage of mice that had one complete estrous cycle (DIO female mice [3]; [8]) | number of complete estrous cycles per mouse (DIO female mice [3]; 15 days of analysis, compared to VEH) | glucose tolerance (blood glucose after IP dextrose) (DIO female mice [4]; 16 h fast, 2 g/kg dextrose IP) | glucose tolerance, IP-GTT area under the curve (AUC) (DIO female mice [4]) | insulin sensitivity, ITT area under the curve (AUC) (DIO female mice [5]; 0.3 units/kg insulin IP, relative to VEH) | fasting glucose levels (7 hrs fasting) (DIO female mice [5]; before insulin injection, compared to VEH controls) | fat / lipid accumulation in liver, KDT501 versus PIO (DIO female mice [6]; KDT501 100 mg/kg compared to PIO 30 mg/kg) | fat / lipid accumulation in liver (DIO female mice [6]; KDT501 100 mg/kg, PIO 30 mg/kg, relative to VEH) | fasting serum IL-6 level (DIO female mice [7]) | fasting serum insulin level (DIO female mice [7]) | fasting serum leptin level (DIO female mice [7])
CC(C)CCC(=O)[C@@]1(O)C([O-])=C(C(=O)CC(C)C)C(=O)[C@@H]1CCC(C)C.[K+] [KDT501, Potassium salt of (+)-KDT500] | no weight gain; also recorded: attenuated weight gain | not significantly altered | not significantly altered | no significant difference | 7.1 | 20% | 60% | Roughly an even percentage | significantly more complete estrous cycles; also recorded: significant increase in number of cycles/mouse | improved glucose tolerance | significant improvement in glucose tolerance | improved insulin sensitivity | lower fasting glucose levels | significantly less lipid accumulation; also recorded: significantly less fat | significantly less lipid accumulation; also recorded: significant reduction in fat | not significantly different; also recorded: No significant differences | not significantly different; also recorded: No significant differences | not significantly different; also recorded: No significant differences
CCc1ccc(CCOc2ccc(CC3SC(=O)NC3=O)cc2)nc1 (stereo not drawn) [PIO, Pioglitazone, reference compound] | – | – | – | – | 20 | 21% and 28% | 25-28% | – | – | – | – | – | – | – | – | – | – | –
